Holding throughout (assay type): cell-based
In experiment [1] the target is T1, VvALMT9 (Vitis vinifera, UniProt F6GTK1).
T1 construct: gene VIT_17s0000g03850; full-length, untagged as told; cRNA from pGEMHE-DEST in Xenopus laevis oocytes
T1 sequence (F6GTK1 1-588): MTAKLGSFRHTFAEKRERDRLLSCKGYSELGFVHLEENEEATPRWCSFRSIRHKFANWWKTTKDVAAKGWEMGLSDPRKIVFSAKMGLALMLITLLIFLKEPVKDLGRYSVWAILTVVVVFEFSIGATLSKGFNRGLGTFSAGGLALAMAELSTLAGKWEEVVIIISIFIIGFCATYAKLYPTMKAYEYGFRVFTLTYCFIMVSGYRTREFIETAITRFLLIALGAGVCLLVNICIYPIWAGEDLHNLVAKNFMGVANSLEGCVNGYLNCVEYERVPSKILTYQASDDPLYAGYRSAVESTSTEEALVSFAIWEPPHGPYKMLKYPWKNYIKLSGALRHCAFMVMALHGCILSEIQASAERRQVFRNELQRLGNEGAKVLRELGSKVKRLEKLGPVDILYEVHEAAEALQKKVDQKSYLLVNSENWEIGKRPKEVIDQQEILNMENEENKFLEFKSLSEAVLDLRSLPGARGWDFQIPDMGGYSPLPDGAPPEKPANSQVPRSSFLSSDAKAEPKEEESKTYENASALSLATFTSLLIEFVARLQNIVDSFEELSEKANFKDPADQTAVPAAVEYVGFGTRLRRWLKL
Put plainly: two-electrode voltage clamp, X. laevis oocytes. To be noted: read-out: half-maximal effective concentration.

Experiment [2] deals with T2, VvALMT9 (Vitis vinifera, UniProt F6GTK1, Y237C).
T2 construct: gene VIT_17s0000g03850; full-length, untagged as told; cRNA from pGEMHE-DEST in Xenopus laevis oocytes
Nature of the experiment: two-electrode voltage clamp, X. laevis oocytes. To be noted: read-out: half-maximal effective concentration. (In general: In two-electrode clamp one electrode senses voltage and the other passes current.)

The target in experiment [3] is T3, TaALMT1 (Triticum aestivum, UniProt Q76LB1, F215C).
T3 construct: gene ALMT1; full-length, untagged as told; cRNA from pGEMHE-DEST in Xenopus laevis oocytes; BY2 tobacco line for flux
T3 sequence (Q76LB1 1-459 F215C): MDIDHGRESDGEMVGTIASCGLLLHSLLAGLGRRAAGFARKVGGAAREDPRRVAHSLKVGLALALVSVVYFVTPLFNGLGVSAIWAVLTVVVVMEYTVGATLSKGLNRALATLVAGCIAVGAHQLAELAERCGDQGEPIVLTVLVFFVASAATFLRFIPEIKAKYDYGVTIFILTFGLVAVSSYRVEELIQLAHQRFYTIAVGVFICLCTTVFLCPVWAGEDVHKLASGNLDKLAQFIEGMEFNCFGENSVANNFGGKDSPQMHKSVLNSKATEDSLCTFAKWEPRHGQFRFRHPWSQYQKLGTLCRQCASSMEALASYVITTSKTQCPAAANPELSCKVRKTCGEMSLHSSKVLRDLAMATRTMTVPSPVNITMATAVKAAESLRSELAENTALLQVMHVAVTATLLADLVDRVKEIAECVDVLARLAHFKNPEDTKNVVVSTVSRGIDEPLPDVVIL
Put plainly: two-electrode voltage clamp, X. laevis oocytes. To be noted: 10 mM malate-activated current, 100 μM GABA.

The target of experiment [4] is T4, TaALMT1 (Triticum aestivum, UniProt Q76LB1).
T4 construct: gene ALMT1; full-length, untagged as told; cRNA from pGEMHE-DEST in Xenopus laevis oocytes; BY2 tobacco line for flux
T4 sequence (Q76LB1 1-459): T3 sequence (Q76LB1 1-459 F215C) with C215F
Put plainly: two-electrode voltage clamp, X. laevis oocytes.

In experiment [5] the target is T5, TaALMT1 (Triticum aestivum, UniProt Q76LB1, F213C/F215C).
T5 construct: gene ALMT1; full-length, untagged as told; cRNA from pGEMHE-DEST in Xenopus laevis oocytes; BY2 tobacco line for flux
T5 sequence (Q76LB1 1-459 F213C/F215C): T3 sequence (Q76LB1 1-459 F215C) with F213C
Put plainly: two-electrode voltage clamp, X. laevis oocytes. To be noted: read-out: half-maximal effective concentration.

Experiment [6] has as its target T4, TaALMT1. Nature of the experiment: two-electrode voltage clamp in oocytes; malate efflux from TaALMT1-expressing BY2 cells. To be noted: 100 μM bicuculline against muscimol or GABA; competitive antagonist.

These results are taken from PMC4532832, “GABA signalling modulates plant growth by directly regulating the activity of plant-specific anion transporters” (Nature Communications, 2015).

Residue numbers refer to the chain shown, from its start. Like-named read-outs stand apart in the source and are kept apart here. Where only a bound is given, the exact number is not on record here.

T2 sequence (F6GTK1 entry or part of it Y237C): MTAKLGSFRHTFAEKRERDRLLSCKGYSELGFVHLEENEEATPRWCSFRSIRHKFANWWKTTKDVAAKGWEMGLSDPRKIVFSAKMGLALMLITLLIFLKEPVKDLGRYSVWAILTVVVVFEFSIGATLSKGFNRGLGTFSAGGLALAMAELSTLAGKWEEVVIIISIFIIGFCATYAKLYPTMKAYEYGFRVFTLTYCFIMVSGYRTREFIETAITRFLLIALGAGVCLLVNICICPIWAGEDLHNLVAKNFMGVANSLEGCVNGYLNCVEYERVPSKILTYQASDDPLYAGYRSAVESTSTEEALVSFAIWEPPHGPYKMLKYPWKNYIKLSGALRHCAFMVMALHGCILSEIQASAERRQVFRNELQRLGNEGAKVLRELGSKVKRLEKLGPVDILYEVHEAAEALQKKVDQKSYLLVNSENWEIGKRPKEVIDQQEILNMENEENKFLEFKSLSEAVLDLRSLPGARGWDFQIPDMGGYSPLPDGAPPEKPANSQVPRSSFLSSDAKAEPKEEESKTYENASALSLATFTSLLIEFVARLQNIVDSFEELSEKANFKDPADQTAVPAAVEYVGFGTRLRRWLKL

For the compound `NCCCC(=O)O` [GABA], the EC50 at VvALMT9 [1] is 5 µM; on VvALMT9 [2] it was 697 µM; at TaALMT1 [4] (read-out: half-maximal effective concentration), 3.2 µM; on TaALMT1 [5], more than 1000 µM. For the same compound, the “inhibition at 100 μM” value against TaALMT1 [3] is recorded as “whereas inward current through TaALMT1^F215C was reduced by GABA”.
Compound `NCc1cc(=O)[nH]o1` [muscimol] returned an EC50 at TaALMT1 [4] of 5.5 µM.
With `CN1CCc2cc3c(cc2[C@H]1[C@@H]1OC(=O)c2c1ccc1c2OCO1)OCO3` [bicuculline], the “two-electrode voltage clamp in oocytes; malate efflux from TaALMT1-expressing BY” value on TaALMT1 [6] is “bicuculline appears to act as a competitive antagonist to GABA action for TaALMT1”.
